This passage reports EC50 and Ki results from ChEMBL document CHEMBL1132013, “Synthesis, computer modeling and biological evaluation of novel protein kinase C agonists based on a 7-membered lactam moiety” (Bioorg Med Chem Lett, 1999).

For assay [1], the system named is HL-60. Kind of assay: Inhibition of HL-60 monocyte cell proliferation; Range = 1-8 uM. The assay is classed as functional. Conditions: Homo sapiens, read-out: ED50 (the source's name).
Assay [2] deals with T1, Protein kinase C alpha type (Homo sapiens, UniProt P17252). Put plainly: (§1) Displacement of [3H]PDBu from human recombinant Protein kinase C alpha.
The test system of assay [3] is HL-60. Kind of assay: Inhibition of HL-60 monocyte cell proliferation; Range = 0.3-0.7 uM. The note with it: Homo sapiens, read-out: ED50 (the source's name). The assay is classed as functional.
In assay [4] the target is T1, Protein kinase C alpha type. The description is as §1. The source holds these as a separate data set.
In assay [5] the test system is HL-60. Put plainly: Inhibition of HL-60 monocyte cell proliferation. In kind it is functional. Conditions: Homo sapiens, read-out: ED50 (the source's name).

Consider `CC(C)CCCC(C)[C@H]1CC[C@H]2[C@@H]3CC[C@H]4CC(=O)N[C@H](CO)C[C@]4(C)[C@H]3CC[C@]12C` (some centres undefined), for which, in the assay on HL-60 [1], the EC50 is 8000 nM. Besides, in assay [2], the inhibition constant (Ki) was above 500 nM.

For `C[C@@]12CCC[C@H]1[C@@H]1CC[C@H]3CC(=O)N[C@H](CO)C[C@]3(C)[C@H]1CC2`, the EC50 in the assay with HL-60 [1] was determined as 8000 nM. The Ki in assay [2] was above 500 nM.

Take `CC(C)CCCC(C)[C@H]1CC[C@H]2[C@@H]3CC[C@H]4CC(=O)N[C@@H](CO)C[C@]4(C)[C@H]3CC[C@]12C` (some centres undefined): the EC50 with HL-60 [1] amounted to 8000 nM. In addition, the Ki in assay [2] is above 500 nM.

As to `CCCCC1(CCCC)CC[C@H]2CC(=O)N[C@H](CO)C[C@]2(C)C1`, the EC50 in the assay on HL-60 [3] came to 700 nM. Further, the inhibitory constant (Ki) in assay [2] turned out to be 60 nM; in assay [4], 80 nM.

`CCCCC1(CCCC)CC[C@H]2CC(=O)N[C@@H](CO)C[C@]2(C)C1`: the EC50 in the assay with HL-60 [3] was 700 nM. In addition, the Ki in assay [2] is 190 nM.

`CCCC[C@@H]1C(=O)N[C@H](CO)C[C@]2(C)CC(CCCC)(CCCC)CC[C@@H]12`: the EC50 in the assay on HL-60 [5] came to 150 nM. Besides, the inhibition constant (Ki) in assay [2] was found to be 17 nM.

Consider `CCCCCCCC[C@@H]1C(=O)N[C@H](CO)C[C@]2(C)CC(CCCC)(CCCC)CC[C@@H]12`, for which the EC50 in the assay with HL-60 [5] was determined as 150 nM. The inhibition constant (Ki) in assay [2] was determined as 11 nM.

As for `CCCCC1(CCCC)CC[C@H]2[C@H](C)C(=O)N[C@H](CO)C[C@]2(C)C1`, in the assay on HL-60 [5], the EC50 came to 150 nM. For the same molecule, the Ki in assay [2] worked out at 21 nM.

Take `C[C@@]12CCC[C@H]1[C@@H]1CC[C@H]3CC(=O)N[C@@H](CO)C[C@]3(C)[C@H]1CC2`: the EC50 in the assay on HL-60 [1] was 8000 nM. Also, the Ki in assay [2] is above 500 nM.
